# Results: patent publication EP0908457B1, “3-(1,2-benzisothiazol- and isoxazol-5-Y1)-2,4(1H,3H)-pyrimidinedione or thione and 3-(1,2-benzisothiazol- and isoxazol-5-y1)-4(3H)-pyrimidinone or thione herbicidal agents” (BASF AKTIENGESELLSCHAFT, priority 1997, dated 1999)
# How the values were obtained:
# Sagittaria pygmaea, L. [1] = assay: Preemergence weed control under flooded paddy conditions, SAGPY (Arrowhead (Pygmaea)); assay type: in vivo; conditions: flooded paddy, rated three to four weeks after treatment; for SAGPY herbicidal effect rating: preemergence; for herbicidal effect rating, SAGPY: preemergence weeds; as to herbicidal effect rating, SAGPY: meaning of each grade not given here
# Cyperus iria [2] = assay: Postemergence weed control under flooded paddy conditions, CYPIR (Rice Flatsedge); assay type: in vivo; conditions: rated three to four weeks after treatment
# [3] = test system: Echinochloa oryzoides (Ard.) Fritsch.; assay: Preemergence weed control under flooded paddy conditions, ECHORC (Watergrass (Calif.)); assay type: in vivo; conditions: flooded paddy, rated three to four weeks after treatment; for ECHORC herbicidal effect rating: preemergence; for herbicidal effect rating, ECHORC: preemergence weeds; as to herbicidal effect rating, ECHORC: meaning of each grade not given here
# [4] = test system: Cyperus serotinus, Rottb.; assay: Preemergence weed control under flooded paddy conditions, CYPSE (Flatsedge); assay type: in vivo; conditions: rated three to four weeks after treatment; for CYPSE herbicidal effect rating: preemergence; for herbicidal effect rating, CYPSE: preemergence weeds; as to herbicidal effect rating, CYPSE: meaning of each grade not given here
# [5] = test system: Oryza sativa, (L.) Tebonnet; assay: Rice tolerance to post-transplant applications under flooded paddy conditions (Example 188), ORYSAT (Rice, Tebonnet); conditions: rated three to four weeks after treatment
# [6] = test system: Monochoria vaginalis, Presl.; assay: Preemergence weed control under flooded paddy conditions, MOOVA (Monochoria); assay type: in vivo; conditions: flooded paddy, rated three to four weeks after treatment; for MOOVA herbicidal effect rating: preemergence; for herbicidal effect rating, MOOVA: preemergence weeds; as to herbicidal effect rating, MOOVA: meaning of each grade not given here
# [7] = test system: Monochoria vaginalis, Presl.; assay: Postemergence weed control under flooded paddy conditions, MOOVA (Monochoria); assay type: in vivo; conditions: rated three to four weeks after treatment
# Sagittaria pygmaea, L. [8] = assay: Postemergence weed control under flooded paddy conditions, SAGPY (Arrowhead (Pygmaea)); assay type: in vivo; conditions: rated three to four weeks after treatment
# [9] = test system: Oryza sativa, (L.) Tebonnet; assay: Rice tolerance to post-transplant applications under flooded paddy conditions (Example 187), ORYSAT (Rice, Tebonnet); conditions: rated three to four weeks after treatment; as to herbicidal effect rating, ORYSAT: meaning of each grade not given here
# [10] = test system: Echinochloa oryzoides (Ard.) Fritsch.; assay: Postemergence weed control under flooded paddy conditions, ECHORC (Watergrass (Calif.)); assay type: in vivo; conditions: rated three to four weeks after treatment
# [11] = test system: Cyperus serotinus, Rottb.; assay: Postemergence weed control under flooded paddy conditions, CYPSE (Flatsedge); assay type: in vivo; conditions: rated three to four weeks after treatment
# Cyperus iria [12] = assay: Preemergence weed control under flooded paddy conditions, CYPIR (Rice Flatsedge); assay type: in vivo; conditions: flooded paddy, rated three to four weeks after treatment; for CYPIR herbicidal effect rating: preemergence; for herbicidal effect rating, CYPIR: preemergence weeds; as to herbicidal effect rating, CYPIR: meaning of each grade not given here
smiles,measurement,setting,value
"COc1c(-c2nsc3ccc(-n4c(=O)cc(C(F)(F)F)n(C)c4=O)cc23)ccc(C)c1C [Example 267, 2,4(1H,3H)-Pyrimidinedione, 3-[3-(2-methoxy-3,4-xylyl)-1,2-benzisothiazol-5-yl]-1-methyl-6-(trifluoromethyl)-]",SAGPY herbicidal effect rating,"Sagittaria pygmaea, L. [1]; Rate 0.0320 kg/ha",0.0
same,SAGPY herbicidal effect rating,"Sagittaria pygmaea, L. [1]; Rate 0.0620 kg/ha",1.0
same,SAGPY herbicidal effect rating,"Sagittaria pygmaea, L. [1]; Rate 0.1250 kg/ha",3.0
same,SAGPY herbicidal effect rating,"Sagittaria pygmaea, L. [1]; Rate 0.2500 kg/ha",5.0
same,"herbicidal effect rating, CYPIR",Cyperus iria [2]; Rate 0.0320 kg/ha,9.0
same,"herbicidal effect rating, CYPIR",Cyperus iria [2]; Rate 0.0620 kg/ha,9.0
same,"herbicidal effect rating, CYPIR",Cyperus iria [2]; Rate 0.1250 kg/ha,9.0
same,"herbicidal effect rating, CYPIR",Cyperus iria [2]; Rate 0.2500 kg/ha,9.0
same,ECHORC herbicidal effect rating,[3]; Rate 0.0320 kg/ha,9.0
same,ECHORC herbicidal effect rating,[3]; Rate 0.0620 kg/ha,9.0
same,ECHORC herbicidal effect rating,[3]; Rate 0.1250 kg/ha,9.0
same,ECHORC herbicidal effect rating,[3]; Rate 0.2500 kg/ha,9.0
same,CYPSE herbicidal effect rating,[4]; Rate 0.0320 kg/ha,0.0
same,CYPSE herbicidal effect rating,[4]; Rate 0.0620 kg/ha,0.0
same,CYPSE herbicidal effect rating,[4]; Rate 0.1250 kg/ha,5.5
same,CYPSE herbicidal effect rating,[4]; Rate 0.2500 kg/ha,9.0
same,"herbicidal effect rating, ORYSAT (rice tolerance)",[5]; Rate 0.0320 kg/ha,2.0
same,"herbicidal effect rating, ORYSAT (rice tolerance)",[5]; Rate 0.0620 kg/ha,5.0
same,"herbicidal effect rating, ORYSAT (rice tolerance)",[5]; Rate 0.1250 kg/ha,6.0
same,"herbicidal effect rating, ORYSAT (rice tolerance)",[5]; Rate 0.2500 kg/ha,7.0
same,MOOVA herbicidal effect rating,[6]; Rate 0.0320 kg/ha,7.5
same,MOOVA herbicidal effect rating,[6]; Rate 0.0620 kg/ha,9.0
same,MOOVA herbicidal effect rating,[6]; Rate 0.1250 kg/ha,9.0
same,MOOVA herbicidal effect rating,[6]; Rate 0.2500 kg/ha,9.0
same,"herbicidal effect rating, MOOVA",[7]; Rate 0.0320 kg/ha,9.0
same,"herbicidal effect rating, MOOVA",[7]; Rate 0.0620 kg/ha,9.0
same,"herbicidal effect rating, MOOVA",[7]; Rate 0.1250 kg/ha,9.0
same,"herbicidal effect rating, MOOVA",[7]; Rate 0.2500 kg/ha,9.0
same,"herbicidal effect rating, SAGPY","Sagittaria pygmaea, L. [8]; Rate 0.0320 kg/ha",0.0
same,"herbicidal effect rating, SAGPY","Sagittaria pygmaea, L. [8]; Rate 0.0620 kg/ha",0.0
same,"herbicidal effect rating, SAGPY","Sagittaria pygmaea, L. [8]; Rate 0.1250 kg/ha",0.0
same,"herbicidal effect rating, SAGPY","Sagittaria pygmaea, L. [8]; Rate 0.2500 kg/ha",0.0
same,ORYSAT herbicidal effect rating,[9]; Rate 0.0320 kg/ha,2.0
same,ORYSAT herbicidal effect rating,[9]; Rate 0.0620 kg/ha,3.0
same,ORYSAT herbicidal effect rating,[9]; Rate 0.1250 kg/ha,4.5
same,ORYSAT herbicidal effect rating,[9]; Rate 0.2500 kg/ha,6.0
same,"herbicidal effect rating, ECHORC",[10]; Rate 0.0320 kg/ha,4.0
same,"herbicidal effect rating, ECHORC",[10]; Rate 0.0620 kg/ha,8.0
same,"herbicidal effect rating, ECHORC",[10]; Rate 0.1250 kg/ha,9.0
same,"herbicidal effect rating, ECHORC",[10]; Rate 0.2500 kg/ha,9.0
same,"herbicidal effect rating, CYPSE",[11]; Rate 0.0320 kg/ha,0.0
same,"herbicidal effect rating, CYPSE",[11]; Rate 0.0620 kg/ha,0.0
same,"herbicidal effect rating, CYPSE",[11]; Rate 0.1250 kg/ha,0.0
same,"herbicidal effect rating, CYPSE",[11]; Rate 0.2500 kg/ha,0.0
same,CYPIR herbicidal effect rating,Cyperus iria [12]; Rate 0.0320 kg/ha,8.0
same,CYPIR herbicidal effect rating,Cyperus iria [12]; Rate 0.0620 kg/ha,8.0
same,CYPIR herbicidal effect rating,Cyperus iria [12]; Rate 0.1250 kg/ha,9.0
same,CYPIR herbicidal effect rating,Cyperus iria [12]; Rate 0.2500 kg/ha,9.0
"CCOc1cccc(-c2nsc3ccc(-n4c(=O)cc(C(F)(F)F)n(C)c4=O)cc23)c1 [Example 327, 2,4(1H,3H)-Pyrimidinedione, 3-[3-(m-ethoxyphenyl)-1,2-benzisothiazol-5-yl]-1-methyl-6-(trifluoromethyl)-]","herbicidal effect rating, SAGPY","Sagittaria pygmaea, L. [1]; Rate 0.0320 kg/ha",3.0
same,"herbicidal effect rating, SAGPY","Sagittaria pygmaea, L. [1]; Rate 0.0620 kg/ha",5.5
same,"herbicidal effect rating, SAGPY","Sagittaria pygmaea, L. [1]; Rate 0.1250 kg/ha",5.5
same,"herbicidal effect rating, SAGPY","Sagittaria pygmaea, L. [1]; Rate 0.2500 kg/ha",7.5
same,"herbicidal effect rating, CYPIR",Cyperus iria [2]; Rate 0.0320 kg/ha,9.0
same,"herbicidal effect rating, CYPIR",Cyperus iria [2]; Rate 0.0620 kg/ha,9.0
same,"herbicidal effect rating, CYPIR",Cyperus iria [2]; Rate 0.1250 kg/ha,9.0
same,"herbicidal effect rating, CYPIR",Cyperus iria [2]; Rate 0.2500 kg/ha,9.0
same,"herbicidal effect rating, ECHORC",[3]; Rate 0.0320 kg/ha,9.0
same,"herbicidal effect rating, ECHORC",[3]; Rate 0.0620 kg/ha,9.0
same,"herbicidal effect rating, ECHORC",[3]; Rate 0.1250 kg/ha,9.0
same,"herbicidal effect rating, ECHORC",[3]; Rate 0.2500 kg/ha,9.0
same,"herbicidal effect rating, CYPSE",[4]; Rate 0.0320 kg/ha,1.0
same,"herbicidal effect rating, CYPSE",[4]; Rate 0.0620 kg/ha,5.5
same,"herbicidal effect rating, CYPSE",[4]; Rate 0.1250 kg/ha,5.5
same,"herbicidal effect rating, CYPSE",[4]; Rate 0.2500 kg/ha,9.0
same,"herbicidal effect rating, ORYSAT (rice tolerance)",[5]; Rate 0.0320 kg/ha,2.0
same,"herbicidal effect rating, ORYSAT (rice tolerance)",[5]; Rate 0.0620 kg/ha,3.0
same,"herbicidal effect rating, ORYSAT (rice tolerance)",[5]; Rate 0.1250 kg/ha,5.0
same,"herbicidal effect rating, ORYSAT (rice tolerance)",[5]; Rate 0.2500 kg/ha,4.0
same,"herbicidal effect rating, MOOVA",[6]; Rate 0.0320 kg/ha,9.0
same,"herbicidal effect rating, MOOVA",[6]; Rate 0.0620 kg/ha,9.0
same,"herbicidal effect rating, MOOVA",[6]; Rate 0.1250 kg/ha,9.0
same,"herbicidal effect rating, MOOVA",[6]; Rate 0.2500 kg/ha,9.0
same,"herbicidal effect rating, MOOVA",[7]; Rate 0.0320 kg/ha,9.0
same,"herbicidal effect rating, MOOVA",[7]; Rate 0.0620 kg/ha,9.0
same,"herbicidal effect rating, MOOVA",[7]; Rate 0.1250 kg/ha,9.0
same,"herbicidal effect rating, MOOVA",[7]; Rate 0.2500 kg/ha,9.0
same,"herbicidal effect rating, SAGPY","Sagittaria pygmaea, L. [8]; Rate 0.0320 kg/ha",0.0
same,"herbicidal effect rating, SAGPY","Sagittaria pygmaea, L. [8]; Rate 0.0620 kg/ha",0.0
same,"herbicidal effect rating, SAGPY","Sagittaria pygmaea, L. [8]; Rate 0.1250 kg/ha",4.0
same,"herbicidal effect rating, SAGPY","Sagittaria pygmaea, L. [8]; Rate 0.2500 kg/ha",4.0
same,herbicidal effect rating ORYSAT,[9]; Rate 0.0320 kg/ha,3.0
same,herbicidal effect rating ORYSAT,[9]; Rate 0.0620 kg/ha,2.5
same,herbicidal effect rating ORYSAT,[9]; Rate 0.1250 kg/ha,3.5
same,herbicidal effect rating ORYSAT,[9]; Rate 0.2500 kg/ha,4.0
same,"herbicidal effect rating, ECHORC",[10]; Rate 0.0320 kg/ha,9.0
same,"herbicidal effect rating, ECHORC",[10]; Rate 0.0620 kg/ha,7.0
same,"herbicidal effect rating, ECHORC",[10]; Rate 0.1250 kg/ha,9.0
same,"herbicidal effect rating, ECHORC",[10]; Rate 0.2500 kg/ha,9.0
same,"herbicidal effect rating, CYPSE",[11]; Rate 0.0320 kg/ha,0.0
same,"herbicidal effect rating, CYPSE",[11]; Rate 0.0620 kg/ha,0.0
same,"herbicidal effect rating, CYPSE",[11]; Rate 0.1250 kg/ha,0.0
same,"herbicidal effect rating, CYPSE",[11]; Rate 0.2500 kg/ha,2.0
same,"herbicidal effect rating, CYPIR",Cyperus iria [12]; Rate 0.0320 kg/ha,9.0
same,"herbicidal effect rating, CYPIR",Cyperus iria [12]; Rate 0.0620 kg/ha,9.0
same,"herbicidal effect rating, CYPIR",Cyperus iria [12]; Rate 0.1250 kg/ha,9.0
same,"herbicidal effect rating, CYPIR",Cyperus iria [12]; Rate 0.2500 kg/ha,9.0
